According to patent publication US10195212B2, “Glucocorticoid-loaded nanoparticles for prevention of corneal allograft rejection and neovascularization” (The Johns Hopkins University, priority 2014, dated 2019):
Where a name gives a salt, the structure may show the parent alone.

Assays:
[1] = hydrocortisone = 1; cited from earlier work
[2] = In vivo ocular DSP levels after SC injection ([3H]-labeled DSP); parameters: species or system Sprague Dawley rat
Experimental: Nanoparticles were suspended in saline at 20 μCi/mL. […] 40 μL (˜0.8 μCi per eye) of same formulation was injected to both eyes of the same animal (Sprague Dawley rat). At the indicated time intervals, 2 h, 1 day, 3 day, 5 day and 7 day after injection, the rats were anesthetized by intramuscular injection of ketamine/xylazine solution. The animal was sacrificed after collecting two drops of blood from the tail vein.
The eye ball with conjunctiva tissue was carefully removed from rats and rinsed with PBS, dried by Kimwipe tissue. The anterior chamber humor, cornea, vitreous, retina and the remaining eye ball tissue were carefully dissected and collected. Both cornea and retina tissues were rinsed with PBS and dried with Kimwipe tissue. All the samples were weighed, dissolved with 2 mL of Solvable by incubation at 50° C. overnight. Blood samples were bleached with 0.2 ml H2O2 and 20 μL, 0.5M EDTA. 10 ml […] scintillation medium was added before counting the radioactivity in a scintillation counter. The results were expressed as a percentage of the injected dose and are the mean±sd of four eyes (2 animals) per data point. […] Total percentage of injected dose at the periocular tissue and the radioactivity per mg (or mL) of tissue were calculated.
Fifty μL (˜0.8 per eye) of the same formulation was administered to both eyes of the same animal (Sprague Dawley rat) through SC injection. At POD14, the rats under anesthesia were sacrificed after collecting two drops of blood from the tail vein. The aqueous, vitreous, and the remaining ocular tissues containing injection sites were carefully dissected and collected. All the samples were weighed and then dissolved with 2 mL of Solvable (Perkin Elmer, Waltham, Mass.) by incubation at 50° C. overnight. Blood samples were bleached with 0.2 mL H2O2 and 20 μL 0.5M EDTA. Ten milliliters of Ultima gold scintillation medium (Perkin Elmer, Waltham, Mass.) was added before counting the radioactivity in a scintillation counter (Perkin Elmer, Waltham, Mass.). The results were expressed as a percentage of the injected dose and are the mean±standard deviation (SD) of four eyes per data point. […] The total percentage of the injected dose at the injection sites and the radioactivity per mg of tissue or mL of blood were calculated.

[3] = test system: transplanted corneal grafts; assay: Corneal allograft rejection after penetrating keratoplasty, weekly SC injection; type: in vivo, Lewis rats; settings: for survival rate of cornea grafts: weekly SC 50 μL at 1 mg DSP/mL
Experimental: All procedures performed with rats were approved by the Johns Hopkins University Animal Care and Use Committee. The Brown-Norway donor rats were sacrificed and the central corneal button of both eyes were removed with a 4.0-mm trephine and kept in physiological solution ready for use. The surgery was performed by a corneal surgeon (QP) under an operating microscope. The cornea recipient Lewis rats were anesthetized with an intramuscular injection of a mixture of Ketamine (80 mg/kg) and Xylazine (8 mg/kg). Repeated instillations of 0.5% tropicamide eye drops were used on Lewis rats for total pupil dilation before surgery. A paracentesis was performed before trephinization, and the anterior chamber was filled with hyaluronic acid. The corneal buttons were removed from the receptor Lewis rats with a 3.5-mm trephine. The donor corneal button was sutured to receptor cornea with 8 suture points.
All groups of animals were undertaken same treatment once every week until the failure of grafts or the end point of study (9 week).
The clinical observations with a slit lamp microscope were performed by two ophthalmologists (QP and LT) on post-operational (PO) 2 week for group 1 and group 2, PO 4 week for group 3 and PO 9 week for group 4. Three parameters were evaluated for the examination of the corneal grafts (cornea transparency, edema and neovascularization). The scoring for the parameters is presented below.
Intraocular pressure was monitored at PO 2 day, 1 week, 2 week, 4 week, 6 week, 8 week and 9 week after the surgery. IOP recorded for each eye is the average of three successful measurements. Animals at the end time points were sacrificed by CO2 and the eyes with PK surgery were enucleated. Eye tissues were fixed with 10% formalin for 24 h before embedding in paraffin. Sections (5 μm) were cut from through the direction of optical nerve and cornea, and stained with H&E.

Compound: C[C@]12C=CC(=O)C=C1CC[C@H]1[C@@H]3C[C@@H](O)[C@](O)(C(=O)CO)[C@@]3(C)C[C@H](O)[C@@]12F [Triamcinolone]
- Relative Potency of Glucocorticoid [1]: 5

Compound: C[C@@H]1C[C@H]2[C@@H]3CCC4=CC(=O)C=C[C@]4(C)[C@@]3(F)[C@@H](O)C[C@]2(C)[C@@]1(O)C(=O)COP(=O)(O)O [DSP, Dexamethasone 21-phosphate sodium salt]
- DSP level in blood ([2]; PO 2 h, SC injection): ≤ 350 ng DSP per ml
- total dose retained at the conjunctiva tissue ([2]; PO 2 h, single SC injection, ~0.08 mg DSP): Approximately 0.4%
- DSP in anterior chamber and vitreous ([2]; PO 7 day after SC administration): not detectable
- DSP at the conjunctiva tissue ([2]; PO day 1, single SC injection): almost no DSP can be detected
- DSP levels at retina and cornea ([2]; SC injection): very low
- time to clearance after SC injection ([2]; rat, in vivo, sc): up to 2 hours
- survival rate of cornea grafts ([3]; PO 2 week): 100%
- survival rate of cornea grafts ([3]; PO 3 week): 80%
- histological examination of cornea tissues at end point ([3]; PO 4 week for DSP, PO 9 week for DSP-NP): swollen and thicker than the normal healthy cornea
- time at which all grafts were rejected ([3]; PO, weekly SC injection): 4 week
- cornea transparency (clinical observation) ([3]; weekly SC injection): as opaque as saline control and NP control groups
- graft neovascularization (clinical observation) ([3]; weekly SC injection, versus control groups): less neovascularization
- graft edema (clinical observation) ([3]; weekly SC injection, versus saline and NP control): significant less edema

Compound: C[C@]12CCC(=O)C=C1CC[C@@H]1[C@@H]2[C@@H](O)C[C@@]2(C)[C@H]1CC[C@]2(O)C(=O)CO [Hydrocortisone]
- Relative Potency of Glucocorticoid [1]: 1

Compound: CC(=O)OCC(=O)[C@@]1(O)[C@H](C)C[C@H]2[C@@H]3C=C(C)C4=Cc5c(cnn5-c5ccccc5)C[C@]4(C)[C@H]3[C@@H](O)C[C@@]21C [Cortivazol]
- Relative Potency of Glucocorticoid [1]: 50

Compound: C[C@]12C=CC(=O)C=C1CC[C@@H]1[C@@H]2[C@@H](O)C[C@@]2(C)[C@H]1CC[C@]2(O)C(=O)CO [Prednisolone]
- Relative Potency of Glucocorticoid [1]: 4
